Data reported in US20170107207A1, “AMINOPYRAZOLONE DERIVATIVE” (DAIICHI SANKYO COMPANY, LIMITED, priority 2014, published 2017).

System: human lymphoma cell line RAMOS cells
Experiment: Cell growth inhibition test using RAMOS cell, MTT assay
Type: cell-based
Details: 50% growth inhibition concentration
In short: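 Cells in RPMI1640 with 10% FBS were exposed to compound (DMSO ≤1%) for 3 days at 37° C, 5% CO2. Viability was read by MTT (4 h, formazan in DMSO, OD 540/660 nm) against a day-0 plate; GI50 was interpolated from T/C % growth rates.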

GI50: 47 nM
SMILES: CCOc1cc(F)c(Cl)cc1C(=O)NCC(C)(C)CC(=O)Nc1c(COC)n(C)n(-c2ccccc2)c1=O [Example 113, 5-Chloro-2-ethoxy-4-fluoro-N-(4-{[5-(methoxymethyl)-1-methyl-3-oxo-2-phenyl-2,3-dihydro-1H-pyrazol-4-yl]amino}-2,2-dimethyl-4-oxobutyl)benzamide]
